The supplement of paper PMC10307832

Legend:
Assay in all cases: relative viability (nuclei count vs DMSO), 5 days (fraction); higher = more cells survive
[1] = compound: O=c1[nH]cc(F)c(=O)[nH]1 [5-Fluorouracil] + Cc1nc(Nc2ncc(C(=O)Nc3c(C)cccc3Cl)s2)cc(N2CCN(CCO)CC2)n1 [Dasatinib] (partner 0.075 µM)
Procedure, shortened: (§1)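 Lung cancer cell lines, seeded in 1536-well plates, were treated the following day by pin tool with a single drug or with five library-drug doses (not always all listed) in √10 steps on top of a fixed anchor-drug dose. Cells were fixed and nuclei stained in one step after 5 days, and nuclei were counted. Relative viability is the nuclei count for treated wells divided by that for vehicle wells, reported as medians of duplicate plates.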

Sulindac + Bortezomib = compound: CC1=C(CC(=O)O)c2cc(F)ccc2/C1=C\c1ccc([S+](C)[O-])cc1 [Sulindac] + CC(C)C[C@H](NC(=O)[C@H](Cc1ccccc1)NC(=O)c1cnccn1)B(O)O [Bortezomib] (partner 0.002 µM)
Procedure, shortened: as §1

Sulindac + Linsitinib = compound: CC1=C(CC(=O)O)c2cc(F)ccc2/C1=C\c1ccc([S+](C)[O-])cc1 [Sulindac] + C[C@]1(O)C[C@@H](c2nc(-c3ccc4ccc(-c5ccccc5)nc4c3)c3c(N)nccn32)C1 [Linsitinib] (partner 1 µM)
Procedure, shortened: as §1

Sulindac + Phenformin = compound: CC1=C(CC(=O)O)c2cc(F)ccc2/C1=C\c1ccc([S+](C)[O-])cc1 [Sulindac] + N=C(N)NC(=N)NCCc1ccccc1 [Phenformin] (partner 250 µM)
Procedure, shortened: as §1

Cell Line	relative viability ([1]; first compound 0.02 µM)	relative viability ([1]; first compound 0.2 µM)	relative viability ([1]; first compound 0.6325 µM)	relative viability ([1]; first compound 2 µM)	relative viability (Sulindac + Bortezomib; first compound 0.08 µM)	relative viability (Sulindac + Bortezomib; first compound 0.253 µM)	relative viability (Sulindac + Bortezomib; first compound 0.8 µM)	relative viability (Sulindac + Bortezomib; first compound 2.53 µM)	relative viability (Sulindac + Bortezomib; first compound 8 µM)	relative viability (Sulindac + Linsitinib; first compound 0.08 µM)	relative viability (Sulindac + Linsitinib; first compound 0.253 µM)	relative viability (Sulindac + Linsitinib; first compound 0.8 µM)	relative viability (Sulindac + Linsitinib; first compound 2.53 µM)	relative viability (Sulindac + Linsitinib; first compound 8 µM)	relative viability (Sulindac + Phenformin; first compound 0.08 µM)	relative viability (Sulindac + Phenformin; first compound 0.253 µM)	relative viability (Sulindac + Phenformin; first compound 2.53 µM)	relative viability (Sulindac + Phenformin; first compound 8 µM)	relative viability (Sulindac + Phenformin; first compound 0.8 µM)
NCI-H2087	0.917	0.835	0.532	0.483	1.17	0.835	0.695	0.892	1.09	1.01	1.13	0.938	0.964	1.17	0.58	0.529	0.431	0.51	
RERF-LC-KJ	0.908	1.01	0.777	0.571	1.23	1.08	0.92	1.07	1.25	0.922	0.948	0.738	0.895	0.895	0.43	0.418	0.455	0.45	0.414
HOP-62	0.681	0.69	0.59	0.558	0.913	1.03	1.02	0.809	0.564	0.858	0.937	1.14	1.03	1.16	0.785	0.937	0.746	0.759	
NCI-H2126	0.552	0.315	0.244	0.212	1.2	1.15	1.06	1.2	1.19	0.608	0.713	0.661	0.726	0.728	0.513	0.541	0.46	0.593	0.539
SW 1573	0.58	0.402	0.472	0.259		1		1.19	1.13	0.834	0.788	0.804	0.95	0.722	0.458	0.365	0.388	0.509	
SK-LU-1	0.189	0.182	0.195	0.166	1.7	1.07		0.906	1.8	1.13	1.27	1.19	1	1.5	0.498	0.567	0.444	0.668	0.444
H3255	0.304	0.5	0.328	0.359	0.714	0.684	0.735	0.891	0.916	0.923	1.03	0.745	1.02	1.1	0.333	0.295	0.336	0.335	0.357
EMC-BAC-2	0.343	0.332	0.368	0.35	1.14	1.1	0.824	1.06	1.08	0.894	0.882	0.726	0.809	0.835	0.551	0.566	0.533	0.61	0.352
CAL-12T	0.403	0.371	0.282	0.261	0.999	1.06	0.852	0.918	1.26	0.787	0.858	0.593	0.795	0.705	0.662	0.615	0.529	0.681	0.418
NCI-H727	0.38	0.395	0.378	0.375	0.822	0.884	0.665	0.742	0.912	0.29	0.224	0.27	0.243	0.34	0.406	0.554	0.564	0.584	
NCI-H1355	0.824	0.58	0.283	0.234	1.27	1.23	1.12	1.24	1.3	0.873	0.949	0.777	0.785	0.883	0.451	0.506	0.44	0.46	
PC-3 [JPC-3]	0.979	1.08	0.946	0.709	0.967	0.796	1.02	0.907	0.862	0.932	0.95	0.951	0.905	0.984	0.475	0.494	0.458	0.548	0.657
NCI-H1734	0.41	0.521	0.407	0.291	1.01	0.937	0.731	0.914	1.25	0.987	0.932	0.575	0.903	1.13	0.402	0.337	0.396	0.496	
NCI-H441	0.748	0.63	0.49	0.278	0.594	0.54	0.458	0.422	1.11	0.469	0.375	0.48	0.638	0.849	0.992	1.03	0.808	0.958	0.456
NCI-H838	0.293	0.291	0.243	0.27	0.951	0.774	0.512	0.628	0.76	1.19	1.06	0.848	1.01	1.2	0.519	0.652	0.518	0.6	0.364
NCI-H23	0.789	0.991	0.475	0.278	0.991	1.26	0.58	1.25	1.27	0.584	0.6	0.32	0.678	0.758	0.819		0.819	0.824	0.61
NCI-H647	0.193	0.232	0.206	0.188	1.02	1.13	0.667	0.936	1.05	1.14	1.3	1.4	1.25	1.21	0.647	0.717	0.623	0.645	0.246
